Data published in ChEMBL document CHEMBL1140952 (J Med Chem, 2009).

Legend:
[1] = Antiproliferative activity against Met-dependent human GTL16 cells after 72 hrs by MTS assay; format: functional, cell-based; conditions: GTL 16, 72 h
[2] = biological target: Hepatocyte growth factor receptor (Homo sapiens, UniProt P08581); assay: Inhibition of MET
Cytochrome P450 3A4 = Cytochrome P450 3A4 (Homo sapiens, UniProt P08684); assay: Inhibition of CYP3A4; format: ADME
Cytochrome P450 2C9 = Cytochrome P450 2C9 (Homo sapiens, UniProt P11712); assay: Inhibition of CYP2C9; format: ADME
[3] = Metabolic stability in mouse liver microsomes assessed per mg of protein; format: ADME, Microsome
Cytochrome P450 2D6 = Cytochrome P450 2D6 (Homo sapiens, UniProt P10635); assay: Inhibition of CYP2D6; format: ADME
Cytochrome P450 2C19 = Cytochrome P450 2C19 (Homo sapiens, UniProt P33261); assay: Inhibition of CYP2C19; format: ADME
Cytochrome P450 1A2 = Cytochrome P450 1A2 (Homo sapiens, UniProt P05177); assay: Inhibition of CYP1A2; format: ADME
Cytochrome P450 1A2, sequence (P05177 whole entry): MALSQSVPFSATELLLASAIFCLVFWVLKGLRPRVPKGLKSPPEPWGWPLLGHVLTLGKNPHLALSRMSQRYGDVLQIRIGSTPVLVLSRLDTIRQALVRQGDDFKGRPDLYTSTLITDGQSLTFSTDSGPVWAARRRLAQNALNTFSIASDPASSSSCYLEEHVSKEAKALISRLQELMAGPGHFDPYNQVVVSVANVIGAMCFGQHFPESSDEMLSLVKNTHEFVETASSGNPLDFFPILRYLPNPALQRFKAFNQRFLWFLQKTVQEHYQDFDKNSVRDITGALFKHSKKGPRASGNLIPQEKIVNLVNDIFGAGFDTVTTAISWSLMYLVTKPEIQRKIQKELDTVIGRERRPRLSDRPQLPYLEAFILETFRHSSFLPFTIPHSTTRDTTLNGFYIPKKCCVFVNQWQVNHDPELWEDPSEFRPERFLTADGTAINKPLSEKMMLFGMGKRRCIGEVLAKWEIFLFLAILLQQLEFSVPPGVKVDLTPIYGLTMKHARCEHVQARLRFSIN

Hepatocyte growth factor receptor, sequence (P08581 whole entry): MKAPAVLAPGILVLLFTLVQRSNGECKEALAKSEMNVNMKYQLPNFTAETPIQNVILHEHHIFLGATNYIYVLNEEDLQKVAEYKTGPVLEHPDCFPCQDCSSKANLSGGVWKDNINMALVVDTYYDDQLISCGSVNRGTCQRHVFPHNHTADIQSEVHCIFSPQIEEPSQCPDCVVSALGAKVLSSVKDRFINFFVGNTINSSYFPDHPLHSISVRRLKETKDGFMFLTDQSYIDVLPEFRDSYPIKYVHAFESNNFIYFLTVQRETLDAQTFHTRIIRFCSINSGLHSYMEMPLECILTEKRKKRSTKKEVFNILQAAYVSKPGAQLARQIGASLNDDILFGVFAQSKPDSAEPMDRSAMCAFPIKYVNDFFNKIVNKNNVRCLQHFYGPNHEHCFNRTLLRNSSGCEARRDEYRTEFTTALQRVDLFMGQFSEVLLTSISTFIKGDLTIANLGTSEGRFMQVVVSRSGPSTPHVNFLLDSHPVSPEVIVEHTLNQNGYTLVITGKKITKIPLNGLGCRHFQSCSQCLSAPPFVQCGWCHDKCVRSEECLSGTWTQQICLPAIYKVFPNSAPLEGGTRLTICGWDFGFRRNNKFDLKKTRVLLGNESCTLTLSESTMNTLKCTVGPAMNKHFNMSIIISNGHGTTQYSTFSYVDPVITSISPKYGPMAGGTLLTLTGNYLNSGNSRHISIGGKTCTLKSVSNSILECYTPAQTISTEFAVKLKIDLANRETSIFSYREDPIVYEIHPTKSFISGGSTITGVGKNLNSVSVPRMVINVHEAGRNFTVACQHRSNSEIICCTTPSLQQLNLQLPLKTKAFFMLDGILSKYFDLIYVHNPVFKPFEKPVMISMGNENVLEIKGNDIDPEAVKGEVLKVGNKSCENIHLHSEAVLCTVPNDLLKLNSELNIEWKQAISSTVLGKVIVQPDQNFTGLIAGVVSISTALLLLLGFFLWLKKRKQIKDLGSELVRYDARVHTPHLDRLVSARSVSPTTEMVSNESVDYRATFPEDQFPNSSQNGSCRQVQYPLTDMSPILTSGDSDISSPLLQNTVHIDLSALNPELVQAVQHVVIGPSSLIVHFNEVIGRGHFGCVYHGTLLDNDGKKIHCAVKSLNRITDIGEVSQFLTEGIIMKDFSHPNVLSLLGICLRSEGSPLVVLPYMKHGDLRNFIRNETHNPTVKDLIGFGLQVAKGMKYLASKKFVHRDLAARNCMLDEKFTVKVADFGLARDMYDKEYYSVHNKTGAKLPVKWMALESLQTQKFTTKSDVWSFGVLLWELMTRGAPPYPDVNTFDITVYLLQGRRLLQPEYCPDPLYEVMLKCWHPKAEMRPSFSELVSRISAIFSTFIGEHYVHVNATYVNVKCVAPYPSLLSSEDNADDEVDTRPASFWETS
Cytochrome P450 3A4, sequence (P08684 whole entry): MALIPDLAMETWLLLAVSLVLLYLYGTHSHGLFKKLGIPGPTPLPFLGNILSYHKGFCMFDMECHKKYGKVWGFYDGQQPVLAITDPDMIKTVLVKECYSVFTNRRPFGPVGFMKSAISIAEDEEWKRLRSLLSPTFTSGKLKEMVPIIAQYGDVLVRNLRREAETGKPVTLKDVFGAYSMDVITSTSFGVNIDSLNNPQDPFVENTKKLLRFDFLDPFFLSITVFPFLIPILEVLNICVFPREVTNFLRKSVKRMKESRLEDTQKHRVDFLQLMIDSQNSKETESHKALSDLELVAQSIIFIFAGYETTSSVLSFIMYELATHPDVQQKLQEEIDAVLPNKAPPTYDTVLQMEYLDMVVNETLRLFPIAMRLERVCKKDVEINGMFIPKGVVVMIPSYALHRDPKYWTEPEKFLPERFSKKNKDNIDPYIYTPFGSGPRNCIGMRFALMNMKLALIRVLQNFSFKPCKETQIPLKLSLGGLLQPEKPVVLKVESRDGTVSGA
Cytochrome P450 2C9, sequence (P11712 whole entry): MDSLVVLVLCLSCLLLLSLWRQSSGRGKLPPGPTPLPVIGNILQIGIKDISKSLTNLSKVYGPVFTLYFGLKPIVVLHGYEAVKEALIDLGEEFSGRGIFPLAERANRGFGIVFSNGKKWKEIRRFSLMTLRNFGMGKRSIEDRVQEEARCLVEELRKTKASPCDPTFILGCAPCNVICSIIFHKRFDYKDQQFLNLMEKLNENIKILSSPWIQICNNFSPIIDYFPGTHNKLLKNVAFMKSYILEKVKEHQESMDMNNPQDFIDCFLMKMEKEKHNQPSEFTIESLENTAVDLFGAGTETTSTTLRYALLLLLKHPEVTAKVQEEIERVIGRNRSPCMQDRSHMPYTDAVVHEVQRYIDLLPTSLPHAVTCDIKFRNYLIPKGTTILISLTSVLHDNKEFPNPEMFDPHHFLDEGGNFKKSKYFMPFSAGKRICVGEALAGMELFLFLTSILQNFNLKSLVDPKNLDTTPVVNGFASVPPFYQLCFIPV
Cytochrome P450 2D6, sequence (P10635 whole entry): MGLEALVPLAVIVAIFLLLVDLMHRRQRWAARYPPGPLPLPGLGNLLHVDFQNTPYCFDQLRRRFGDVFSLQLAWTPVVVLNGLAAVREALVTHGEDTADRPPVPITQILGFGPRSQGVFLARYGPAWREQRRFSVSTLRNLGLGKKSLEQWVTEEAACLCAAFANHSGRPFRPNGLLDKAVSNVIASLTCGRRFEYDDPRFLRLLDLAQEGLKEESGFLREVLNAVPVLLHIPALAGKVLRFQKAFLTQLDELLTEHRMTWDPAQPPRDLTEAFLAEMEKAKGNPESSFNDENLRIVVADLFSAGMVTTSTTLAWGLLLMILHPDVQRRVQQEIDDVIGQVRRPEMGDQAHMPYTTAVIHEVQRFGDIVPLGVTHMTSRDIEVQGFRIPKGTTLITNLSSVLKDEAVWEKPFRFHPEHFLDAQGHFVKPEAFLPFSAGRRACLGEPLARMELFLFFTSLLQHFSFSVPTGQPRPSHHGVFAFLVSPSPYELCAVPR
Cytochrome P450 2C19, sequence (P33261 whole entry): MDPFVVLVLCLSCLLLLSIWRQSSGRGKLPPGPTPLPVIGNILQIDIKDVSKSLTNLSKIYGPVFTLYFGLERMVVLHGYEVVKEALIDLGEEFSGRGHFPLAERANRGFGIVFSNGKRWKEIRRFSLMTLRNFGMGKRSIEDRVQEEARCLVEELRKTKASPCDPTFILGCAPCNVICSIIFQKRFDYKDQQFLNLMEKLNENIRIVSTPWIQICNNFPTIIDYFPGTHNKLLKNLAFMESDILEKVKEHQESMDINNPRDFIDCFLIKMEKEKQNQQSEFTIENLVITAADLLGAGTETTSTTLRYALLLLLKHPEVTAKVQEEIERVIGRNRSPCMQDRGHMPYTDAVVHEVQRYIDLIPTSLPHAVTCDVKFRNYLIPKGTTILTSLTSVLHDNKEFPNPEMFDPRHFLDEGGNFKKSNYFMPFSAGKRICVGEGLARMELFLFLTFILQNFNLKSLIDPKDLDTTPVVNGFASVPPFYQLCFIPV

IC50 [2]	IC50 (Cytochrome P450 3A4)	IC50 (Cytochrome P450 2C9)	Activity [3]	IC50 (Cytochrome P450 2D6)	IC50 (Cytochrome P450 2C19)	IC50 (Cytochrome P450 1A2)	SMILES	IC50 [1]
3.8 nM							NCC#Cc1c(Oc2ccc(NC(=O)c3cccn(-c4ccc(F)cc4)c3=O)cc2F)ccnc1N	210 nM
3.2 nM							CC(C)Oc1ccn(-c2ccc(F)cc2)c(=O)c1C(=O)Nc1ccc(Oc2ccnc(N)c2Cl)c(F)c1	140 nM
2.6 nM							Nc1nccc(Oc2ccc(NC(=O)c3c(OCCO)ccn(-c4ccc(F)cc4)c3=O)cc2F)c1Cl	250 nM
1 nM	< 1000 nM						C#Cc1c(Oc2ccc(NC(=O)c3cccn(-c4ccc(F)cc4)c3=O)cc2F)ccnc1N	31 nM
3.4 nM							CC(C)c1c(Oc2ccc(NC(=O)c3cccn(-c4ccc(F)cc4)c3=O)cc2F)ccnc1N	120 nM
1 nM	4000 nM	7000 nM	0.012 nmol/min/mg	> 20000 nM	> 20000 nM	> 20000 nM	Nc1nccc(Oc2ccc(NC(=O)c3cccn(-c4ccc(F)cc4)c3=O)cc2F)c1Cl	57 nM
